# Source: the NIST ThermoML archive (doi:10.1016/j.tca.2012.05.004)
# ± gives the expanded uncertainty stated by the source.
# Details: 101.33 kPa, Liquid, Vibrating tube method
mass density (288.15 K) [kg/m3],mass density (293.15 K) [kg/m3],mass density (298.15 K) [kg/m3],mass density (303.15 K) [kg/m3],mass density (308.15 K) [kg/m3],mass density (313.15 K) [kg/m3],Compound
1259.99 ± 0.58,1252.77 ± 0.57,1245.49 ± 0.56,1238.18 ± 0.56,1230.84 ± 0.55,1223.46 ± 0.54,"ClCCCl [1,2-dichloroethane]"
818.064 ± 0.3,814.174 ± 0.3,810.227 ± 0.31,806.225 ± 0.31,802.16 ± 0.31,798.04 ± 0.31,CCCCC(C)O (stereo unspecified) [2-hexanol]
824.028 ± 0.3,820.313 ± 0.3,816.559 ± 0.3,812.768 ± 0.3,808.94 ± 0.31,805.079 ± 0.31,CCCCCCC(C)O (stereo unspecified) [2-octanol]
810.879 ± 0.3,806.837 ± 0.31,802.716 ± 0.31,798.513 ± 0.31,794.218 ± 0.31,789.832 ± 0.31,CCC(C)O (stereo unspecified) [butan-2-ol]
813.272 ± 0.3,809.305 ± 0.31,805.27 ± 0.31,801.157 ± 0.31,796.97 ± 0.31,792.702 ± 0.31,CCCC(C)O (stereo unspecified) [pentan-2-ol]
789.337 ± 0.31,785.198 ± 0.31,780.987 ± 0.31,776.718 ± 0.31,772.371 ± 0.31,767.935 ± 0.31,CC(C)O [propan-2-ol]
